According to ChEMBL document CHEMBL3272091, “Ergot alkaloids. Synthesis of 6-alkyl-8-ergolenes and 6-methyl-8-aminoergolines as potential prolactin inhibitors” (1977):
Calls of active or inactive are those of the source. The rule behind the calls is not given here.

How the values were obtained:
Rattus norvegicus [1] = experiment: Prolactin inhibition ability in Sprague-Dawley rat at 10 ug/ml, ip administered 18 hrs post reserpine treatment measured after 1 hr by RIA relative to lergotrile; type: functional
Rattus norvegicus [2] = experiment: Prolactin stimulation ability in Sprague-Dawley rat at 10 ug/ml, ip administered 18 hrs post reserpine treatment measured after 1 hr by RIA; type: functional, organism-based
Rattus norvegicus [3] = experiment: Prolactin inhibition ability in Sprague-Dawley rat at 10 ug/ml, ip administered 18 hrs post reserpine treatment measured after 1 hr by RIA; type: functional
Rattus norvegicus [4] = experiment: Prolactin inhibition ability in Sprague-Dawley rat at 10 ug/ml, ip administered 18 hrs post reserpine treatment measured after 1 hr by RIA relative to ergoconine; type: functional

Row | Compound | inhibition (INH) (Rattus norvegicus [1]) | inhibition (Rattus norvegicus [2]) | inhibition (INH) (Rattus norvegicus [3]) | inhibition (INH) (Rattus norvegicus [4])
1 | OCC1=C[C@@H]2c3cccc4[nH]cc(c34)C[C@H]2N(Cc2ccccc2)C1 | 60% |  |  | 
2 | CN1C[C@H](NC(=O)CBr)C[C@@H]2c3cccc4[nH]cc(c34)C[C@H]21 |  | Active |  | 
3 | CCOC(=O)CN1CC(CO)=C[C@@H]2c3cccc4[nH]cc(c34)C[C@H]21 | 77% |  | 14% | 
4 | N#CN1CC(CO)=C[C@@H]2c3cccc4[nH]cc(c34)C[C@H]21 |  |  | 25% | 67%
5 | CCN1CC(CO)=C[C@@H]2c3cccc4[nH]cc(c34)C[C@H]21 | 77% |  | 63% | 
6 | CCCN1CC(CO)=C[C@@H]2c3cccc4[nH]cc(c34)C[C@H]21 | 77% |  | 72% | 
7 | CCC(=O)N1CC(CO)=C[C@@H]2c3cccc4[nH]cc(c34)C[C@H]21 | 77% |  |  | 
8 | CC(=O)N1CC(CO)=C[C@@H]2c3cccc4[nH]cc(c34)C[C@H]21 |  | Active |  | 
9 | OCC1=C[C@@H]2c3cccc4[nH]cc(c34)C[C@H]2NC1 |  |  | 58% | 67%
10 | CN1CC(CO)=C[C@@H]2c3cccc4[nH]cc(c34)C[C@H]21 |  |  | 71% | 75%
11 | CN1C[C@H](NC(=O)CCl)C[C@@H]2c3cccc4[nH]cc(c34)C[C@H]21 |  | Active |  | 
12 | CN1C[C@H](N)C[C@@H]2c3cccc4[nH]cc(c34)C[C@H]21 |  |  | 57% | 
